USRE43371E1, “Use of selected cyclosporins for the treatment of hepatitis C infection” (priority 2004, dated 2012)
In brackets after ≈: the same amount, converted by molar mass.

Assays:
[1] = molecular target: T1, human recombinant cyclophilin A (Homo sapiens, UniProt P62937); assay: PPIase activity of cyclophilin A, tight binding inhibitor analysis; type: biochemical; details: for k: rate constant for the rate limiting reaction; for Et: total enzyme concentration from tight binding fit
T1 construct: purchased Sigma
T1 sequence (P62937 whole entry): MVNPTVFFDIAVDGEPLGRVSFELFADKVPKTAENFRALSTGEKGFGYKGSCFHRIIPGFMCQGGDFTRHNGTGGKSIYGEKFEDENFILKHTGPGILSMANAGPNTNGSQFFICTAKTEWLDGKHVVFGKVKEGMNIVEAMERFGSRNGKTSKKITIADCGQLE
Procedure: Commercial human recombinant cyclophilin A (Sigma) was used in the assays. PPlase activity of cyclophilins was determined using a chymotrypsin-coupled spectrophotometric assay according to Garcia-Echverria et al. (BBRC, 191, (1993), 70-75). This method is based on the high trans selectivity of chymotrypsin for peptides of the type N-succinyl-ala-ala-pro-phe-p-nitroanilide. The peptides cleavage liberated the para-nitroaniline moiety that could be detected and quantitated at 390 nm. The hydrolysis of the cis form was limited by the rate of cis-trans isomerisation carried out by cyclophilin A. The peptide was made up in a solution of […] LiCl in 2,2,2-trifluoroethanol at 470 mM to enhance the cis conformer peptides population. The assay was performed on the split beam spectrophotometer and the water bath was set at 5° C. Cyclophilin A (7500 pmol/mg total enzyme concentration; Sigma) were dissolved at 20 nM in a buffer (35 mM HEPES and 0.26 mg/ml chymotrypsin (specific activity 50 units/mg), pH 7.8 with KOH) and were incubated for 6 minutes at room temperature followed by 54 minutes in the water bath. […] Then 3.5 ml of the incubated cyclophilin was added to the sample cuvette. […] Peptide was added at 25 μM to initiate the reaction and the change in absorbance was monitored at 10 data points per second. As a control, rates were also determined for a parallel reaction that lacked cyclophilin. These blank rates of peptide hydrolysis (i.e. in the absence of cyclophilin) were subtracted from rates in the presence of cyclophilin A.
The initial rates obtained from the PPlase assays were analysed by first order regression analysis by using first order transformation of the traces of the time course of the change in the absorbance at 390 nm. Total enzyme concentration (Et), the inhibitor dissociation constant (Ki) and the rate constant for the rate limiting reaction was calculated with the software FigSyS (2003, Biosoft) by fitting the data obtained from the regression analysis in the tight binding inhibitor multiprotein equation.
Once Et, Ki and k were calculated by the computer for a given set of data, a graphic representation of the data was plotted and the line fitted to the points assuming tight inhibitor binding to a single protein, defined by the following equations: v=K*Et*P−K(B−sqrt(B*B−4*C))/2 where B=Et*P+I+Ki and C=Et*P*I.

[2] = tested on: Jc1-Luc recombinant virus (HCV strains J6/JFH1) in Huh-7-Lunet and Huh-7.5 cells; assay: Luciferase assay in hepatoma cells infected with Jc1-Luc recombinant HCV; type: cell-based, hepatitis C virus (HCV); details: Huh-7-Lunet and Huh-7.5 cells infected with Jc1-Luc; for antiviral activity: 72 hours (FIGS. 1 and 2)
Excerpt: The method used hepatoma cells that had been infected with an infectious full length cheieric HCV construct or the same virus that was modified to carry a luciferase […] gene.
Infectious HCV viruses of full-length chimeric genome between HCV strains J6 and JFH1 (Jc1) were used to inoculate the hepatoma cells of the assays. The construct of Jc1 virus was also modified to obtain a bicistronic genome carrying a luciferase reporter gene (Jc1-Luc). Twenty-four and ninety-six hours after the transfection of RNA transcripts of the genomes by electroporation of Huh-7.5 cells, cell culture supernatant was collected. Supernatants were filtered ([…]) and cell culture infectious dose 50 (CCID50) per ml were determined by the limiting dilution assays according to Lindenbach et al. (Science, 309, (2005), 623-626). The CCID50 were 1.3×105 for Jc1 and 4.2×103 for Jc1-Luc.
Assays used either Huh-7-Lunet or Huh-7.5 cells (Lohmann et al., Science 285(5424), (1999), 110-113). Cells were grown in Dulbecco's modified Eagle's Medium (DMEM; Gibco) supplemented with 10% heat-inactivated fetal bovine serum (FCS) (Integro), 1× non-essential amino acids (Gibco), 100 IU/ml penicillin (Gibco), 100 μg/ml streptomycin (Gibco) or 25 μg/ml hygromycin (Gibco) for Huh-mono cells at 37° C. and 5% CO2. For antiviral (replication) assays, Huh-7-Lunet and Huh-7.5 cells were seeded at a density of 2×104 or 4×10^4 cells per well of a 12-well plate. Twenty four hours later, the medium was replaced by 0.5 ml of the Jc1-Luc virus stock (12-well plates) or 0.25 ml of the Jc1 virus stock (12-well plates).
The inhibition of viral replication were estimated by luciferase assay. To carry out luciferase assay, cells were harvested, washed with PBS and lysed in luciferase lysis buffer (1% Triton X-100, 25 mM glycylglycine, 15 mM MgSO4, 4 mM EGTA, and 1 mM DTT). Firefly luciferase activity was measured according to Krieger et al. (J Virol, 75(10), (2001), 4614-4624). […] Finally, luminescence was measured by using a Lumat LB9507 luminometer (Berthold) for 20 samples.

[3] = tested on: HCV replicon-containing MH-14 cells; details: cited from earlier work; for HCV RNA accumulation was inhibited: Northern blot and quantitative RT-PCR
CD4+ PBMCs = assay: Mixed lymphocyte reaction, proliferative response of CD4+ PBMCs; type: cell-based; details: for % Stimulation (relative): cyclosporin 1 μg/ml, five days, [3H]-thymidine incorporation; for immunosuppressive activity (interpretation of Table 2): mixed lymphocyte reaction, 1 μg/ml
Procedure: In this assay, cyclosporins were dissolved in ethanol (10 mg/ml). Freshly isolated CD4^+ PBMCs from two healthy donors were mixed subsequent to inactivation by irradiation of one of the populations (stimulator cells; S). […] R) was determined by [^3H]-thymidine incorporation. The assay was conducted reciprocally with the two cell populations, each being inactivated and stimulated in turn. Stimulation (%) of responder cells was calculated by the formula: […] Sample refers to a mixture of stimulator and responder cells. Background represents a control in which only stimulator cells are mixed.

[4] = tested on: HCV replicon (genotype 1 b) in Huh 5-2 cells
Procedure: (§1) Assays used Huh 5-2 cells that contained a bicistronic RNA encoding a firefly luciferase-ubiquitin-neomycin phosphotransferase fusion protein and HCV proteins NS3-5. The viral sequences originated from an HCV virus of genotype 1 b. Cells were cultured in RPMI 1640 medium (Gibco) supplemented with 10% fetal calf serum, 2 mM glutamine (Life Technologies), 1× non-essential amino acids (Life Technologies), 100 u/ml penicillin, 100 μg/ml streptomycin and 250 μg/ml G418 (Geneticin, Life Technologies) at 37° C. and 5% CO2. For antiviral (replication) assays, cells were seeded at a density of 7000 cells/well in 96-well View Plates™ (Packard) in the same medium except for G418. After a 24-h incubation, medium was removed, serial dilutions of test compounds in medium were added, and cells were incubated for an additional 72 h.
Antiviral effects were estimated either by luciferase assay or quantitative RT-PCR. To carry out luciferase assays, medium was removed, and cells were washed with PBS. Subsequent to lysis in 50 μl of Glo-lysis buffer (Promega) for 15 min, 50 μl of Stead-Glo Luciferase Assay Reagent (Promega) were added to cell lysates. Luciferase activity was measured using a luminometer, and the signal from each test well was expressed as a percentage of the signal measured in wells of cultures not exposed to a test compound. […]

[5] = tested on: HCV replicon (genotype 1 b) in Huh 5-2 cells; details: EC50 derived from RNA titers by quantitative RT-PCR; asterisk = lower of two independently determined values
Procedure: as §1
Results from these experiments permitted calculation of EC50 for the different cyclosporins, which is the effective concentration required to inhibit HCV replicon replication by 50%, and of CC50, which is the concentration required that inhibits the proliferation of exponentially growing cells by 50%, and a selectivity index SI, which is the ratio between CC50 and EC50.

cyclophilin = molecular target: T2, cyclophilin (Homo sapiens, UniProt P62937); assay: Peptidyl-prolyl cis-trans isomerase (PPIase) activity of cyclophilin, chymotrypsin-coupled Suc-AAPF-pNA assay; type: biochemical; details: compared with substitution in position 4 only
T2 construct: purchased Sigma
T2 sequence (P62937 whole entry): as above
Procedure: Peptidyl-prolyl cis-trans isomerase (PPlase) activity of cyclophilins was determined using a procedure adapted from Kofron et al. (see Biochemistry 30, 6127-6134 (1991); J. Am. Chem. Soc. 114, 2670-2675 (1992)). N-succinylated Ala-Ala-Pro-Phe-para nitro-aniline (Suc-AAPF-pNA, Bachem, Bubendorf, Switzerland) was used as the substrate. The assay was based on the preferential chymotrypsin cleavage of the trans isoform of the Phe-pNA bond in the tetrapeptide Ala-Ala-Pro-Phe-pNA. This cleavage liberates the para-nitroaniline moiety that can be detected and quantitated at 390 nm (ε=11,814 M^−1cm^−1). […] Cis-trans isomerization is catalysed by cyclophilin (PPlase, EC 5.2.1.8). […] Subsequent to the addition of 3.75 mg of chymotrypsin (70 μl of a solution of chymotrypsin in 10 mM HCl), the reaction was initiated by addition of 10 μl of a 3.2 mM solution of Suc-AAPF-pNA in 0.5 M LiCl/trifluoroethanol. The reaction was monitored for 3 min, and an initial rate constant was determined from the data obtained. As a control, an initial rate constant was also determined for a parallel reaction that lacked cyclophilin.

[6] = tested on: HCV replicon in Huh-9-13 cells; assay: HCV replicon clearance and rebound in Huh-9-13 cells; type: cell-based, hepatitis C virus (HCV); details: after 7 consecutive passages at 0.5 or 1 μg/ml; G418 1000 μg/ml for 2 passages (FIG. 3)
Procedure: Assays used Huh-9-13 cells, human hepatoma cells (Huh-7) (Lohmann et al., Science 285(5424), (1999), 110-113) Cells were grown in the usual complete medium DMEM without G418 pressure.
RT-PCR were performed on extracts of viral RNA of samples taken at different passage points. The forward and reverse primers used were 5′-[sequence]-3′ and 5′-[sequence]-3′, respectively. The fluorogenic probe was 5′-[sequence]-3′. As an internal control, a plasmid containing part of the neomycin phosphotransferase gene sequence was used. Results were analysed and expressed as a quantity of replicon RNA (ng) per 1′000 cells and used to draft a graph.

[7] = Initial phase I clinical studies, safety of oral doses; type: in vivo
Procedure: Initial phase I clinical studies were carried out to assess the safety of oral doses of [D-MeAla]^3-[EtVal]^4-CsA, and to determine the pharmacokinetic profile and safety profile of the drug substance. […] These side effects were not dose-related.

What does the source list for Cyclosporin A [CsA]?
k [1]: 0.17 ± 0.0069 s − 1; Et [1]: 7500 pmol/mg; higher concentration needed for the same replication inhibiting effect as [D-MeAla]3-[EtVal]4-CsA [2]: 10 fold; antiviral activity [2]: dose-dependent antiviral activity; reduction of HCV RNA titer ([3]; 7-day exposure, 1 μg/ml): about 200 fold; HCV RNA accumulation was inhibited ([3]; MH-14 cells): inhibited

Which “HCV RNA accumulation was inhibited” value ([3]; MH-14 cells) does the source give for `C/C=C/C[C@@H](C)C(=O)[C@H]1C(=O)N[C@@H](C(C)C)C(=O)N(C)CC(=O)N(C)[C@@H](CC(C)C)C(=O)N[C@@H](C(C)C)C(=O)N(C)[C@@H](CC(C)C)C(=O)N[C@@H](C)C(=O)N[C@H](C)C(=O)N(C)[C@@H](CC(C)C)C(=O)N(C)[C@@H](CC(C)C)C(=O)N(C)[C@@H](C(C)C)C(=O)N1C` [PSC 833] here?
Its value is “not”.

Which results are given for `C/C=C/C[C@@H](C)[C@@H](O)[C@H]1C(=O)N[C@@H](CC)C(=O)N(C)CC(=O)N(C)[C@@H]([C@@H](C)CC)C(=O)N[C@@H](C(C)C)C(=O)N(C)[C@@H](CC(C)C)C(=O)N[C@@H](C)C(=O)N[C@H](C)C(=O)N(C)[C@@H](CC(C)C)C(=O)N(C)[C@@H](CC(C)C)C(=O)N(C)[C@@H](C(C)C)C(=O)N1C` [[MeIle]^4-CsA]?
k [1]: 0.17 ± 0.0068 s − 1; Et [1]: 7500 pmol/mg; % Stimulation (relative) (CD4+ PBMCs; co-culture R1 × S2): 84%; % Stimulation (relative) (CD4+ PBMCs; co-culture R2 × S1): 75%; immunosuppressive activity (interpretation of Table 2) (CD4+ PBMCs): essentially devoid of immunosuppressive activity; EC50 +/− Std. Dev. ([4]; luciferase assay, 72 h): 0.22 µg/mL (≈ 0.183 µM); Selectivity index ([4]; ratio between CC50 (MTT) and EC50 (luciferase)): 64; SI values [5]: 73; effectiveness in reducing HCV RNA titer relative to CsA ([3]; MH-14 cells): about equally as effective as CsA

Which “further increase in cyclophilin binding activity by substitution in position 3” value (cyclophilin) does the source give for `C/C=C/C[C@@H](C)[C@@H](O)[C@H]1C(=O)N[C@@H](CC)C(=O)N(C)[C@H](C)C(=O)N(CC)[C@@H](C(C)C)C(=O)N[C@@H](C(C)C)C(=O)N(C)[C@@H](CC(C)C)C(=O)N[C@@H](C)C(=O)N[C@H](C)C(=O)N(C)[C@@H](CC(C)C)C(=O)N(C)[C@@H](CC(C)C)C(=O)N(C)[C@@H](C(C)C)C(=O)N1C` [[D-MeAla]^3-[EtVal]^4-CsA] here?
The value was no less than 2 fold.

What about the “higher affinity for cyclophilin compared to [MeIle]4-CsA” value ([1]; cyclophilin A) of the same molecule?
The value was roughly 6 fold.

What about the k [1] of the same molecule?
The k was 0.16 ± 0.0074 s − 1.

What about the Et [1] of the same molecule?
Its Et is 7500 pmol/mg.

And the “immunosuppressive activity (interpretation of Table 2)” value (CD4+ PBMCs)?
Its value is “essentially devoid of immunosuppressive activity”.

And the “outcome of cultures in the presence of G418 (rebound phase)” value [6]?
Its value is “the cultures died”.

And the “tolerability of oral doses” value ([7]; doses of 50 to 1600 mg in a micro-emulsion in water)?
The value was “well tolerated”.

And the side effects ([7]; oral doses 50 to 1600 mg, not dose-related)?
Its side effects is “Mild and short-lived side effects were observed including nausea, vomiting, abdominal pain, mild headaches”.

What about the antiviral activity [2] of the same molecule?
Its antiviral activity is “dose-dependent antiviral activity”.
